Values quoted from earlier work in US20240207248A1, “METHODS, KITS AND COMPOSITIONS FOR REDUCING CHROMOSOMAL INSTABILITY IN CANCER CELLS” (BARUCH S. BLUMBERG INSTITUTE, priority 2021, published 2024).

System: aneuploid primary mouse embryonic fibroblasts carrying Robertsonian fusion chromosomes
Settings: energy and proteotoxic stress-inducing compounds

Structure (SMILES) | selectivity against aneuploid primary mouse embryonic fibroblasts
NC(=O)c1ncn([C@@H]2O[C@H](CO)[C@@H](O)[C@H]2O)c1N [AICAR] | showed selectivity
C=CCNC1=C2C[C@@H](C)C[C@H](OC)[C@H](O)[C@@H](C)/C=C(\C)[C@H](OC(N)=O)[C@@H](OC)/C=C\C=C(/C)C(=O)NC(=CC1=O)C2=O [17-AAG] | showed selectivity
